Experimental data taken from article PMC6274279, “Novel Cholinesterase Inhibitors Based on O-Aromatic N,N-Disubstituted Carbamates and Thiocarbamates” (Molecules, 2016).
Read-outs that look alike come from different tables or passages of the source.

Assays:
BChE from equine serum = molecular target: T1, BChE from equine serum (Equus caballus, UniProt P81908); assay: Butyrylcholinesterase inhibition, spectrophotometric Ellman's method; type: biochemical; conditions: for Selectivity to BChE: IC50 for AChE/IC50 for BChE; for Selectivity Index for BChE: ratio of cellular toxicity (HepG2 IC50) and IC50 for BChE
T1 construct: butyrylcholinesterase was from equine serum; from tissue; host or cells: equine serum
T1 sequence (P81908 whole entry): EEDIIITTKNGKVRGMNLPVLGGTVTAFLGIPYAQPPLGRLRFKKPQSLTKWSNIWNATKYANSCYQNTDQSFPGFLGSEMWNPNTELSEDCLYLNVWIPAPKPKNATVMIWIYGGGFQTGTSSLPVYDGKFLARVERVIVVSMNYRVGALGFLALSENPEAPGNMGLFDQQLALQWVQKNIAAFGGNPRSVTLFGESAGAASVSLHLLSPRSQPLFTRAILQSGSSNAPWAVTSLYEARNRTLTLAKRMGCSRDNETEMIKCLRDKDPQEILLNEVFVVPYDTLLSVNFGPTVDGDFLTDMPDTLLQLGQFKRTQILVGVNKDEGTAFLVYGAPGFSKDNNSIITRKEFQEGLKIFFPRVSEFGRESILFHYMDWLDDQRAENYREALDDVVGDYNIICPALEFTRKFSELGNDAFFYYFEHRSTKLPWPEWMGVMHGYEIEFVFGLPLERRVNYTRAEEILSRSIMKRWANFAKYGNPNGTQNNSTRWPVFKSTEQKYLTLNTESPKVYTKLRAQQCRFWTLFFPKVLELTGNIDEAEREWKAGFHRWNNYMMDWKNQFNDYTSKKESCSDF
Method: (§1) The IC50 values were determined using the spectrophotometric Ellman’s method, which is a simple and rapid method to determine the SH and -S-S- groups content in proteins. This method is widely used for the evaluation of cholinesterase activity and screening the efficiency of ChE inhibitors. Cholinesterase activity is measured indirectly by quantifying the concentration of the 5-mercapto-2-nitrobenzoic acid ion formed in the reaction between the thiol reagent 5,5′-dithiobis(2-nitrobenzoic acid) and thiocholine, a product of substrate hydrolysis (i.e., acetylthiocholine, ATCh) by cholinesterases. Ellman’s method was modified slightly according to Zdrazilova et al..
(§2) The inhibitory potency of fifteen carbamates and five thiocarbamates was evaluated for AChE from electric eel and BChE from equine serum.
(§3) The IC50 values were determined using the spectrophotometric Ellman’s method. All of the tested compounds were dissolved in 0.01 M dimethyl sulphoxide and then diluted in demineralised water to 0.001 M and 0.0001 M. Ellman’s method was modified slightly according to Zdrazilova et al.. Acetylcholinesterase was obtained from electric eel (Electrophorus electricus L.) and butyrylcholinesterase was from equine serum.

AChE from electric eel = molecular target: T2, AChE from electric eel (Electrophorus electricus, UniProt O42275); assay: Acetylcholinesterase inhibition, spectrophotometric Ellman's method; type: biochemical, electric eel (Electrophorus electricus L.); conditions: for Selectivity Index for AChE: ratio of cellular toxicity (HepG2 IC50) and IC50 for AChE
T2 construct: Acetylcholinesterase was obtained from electric eel (Electrophorus electricus L.); from tissue
T2 sequence (O42275 24-633): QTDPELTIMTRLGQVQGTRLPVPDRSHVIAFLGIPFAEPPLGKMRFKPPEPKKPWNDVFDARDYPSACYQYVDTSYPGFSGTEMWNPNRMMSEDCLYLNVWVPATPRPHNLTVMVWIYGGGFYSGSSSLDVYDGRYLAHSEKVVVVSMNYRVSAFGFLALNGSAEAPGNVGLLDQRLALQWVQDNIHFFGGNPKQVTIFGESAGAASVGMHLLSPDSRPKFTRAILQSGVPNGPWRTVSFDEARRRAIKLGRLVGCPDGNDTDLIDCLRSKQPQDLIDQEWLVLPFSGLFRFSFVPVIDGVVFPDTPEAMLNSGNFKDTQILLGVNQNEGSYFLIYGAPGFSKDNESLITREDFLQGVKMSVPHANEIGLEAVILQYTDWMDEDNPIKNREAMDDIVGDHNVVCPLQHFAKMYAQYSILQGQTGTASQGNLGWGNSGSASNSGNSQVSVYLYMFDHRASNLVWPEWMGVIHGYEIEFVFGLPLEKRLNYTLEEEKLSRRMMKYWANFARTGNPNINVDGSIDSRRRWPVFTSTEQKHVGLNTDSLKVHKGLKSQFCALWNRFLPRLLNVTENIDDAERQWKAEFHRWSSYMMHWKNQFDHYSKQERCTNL
Method: as §1, §2, §3

HepG2 cells = conditions: cited from earlier work
[1] = cytotoxicity determined previously, read-out: IC50 for HepG2
[2] = approximate value, read-out: IC50 values (cytotoxicity, HepG2)

In the case of CN(C)C(=O)Oc1ccc(Cl)cc1C(=O)Nc1ccc(Cl)cc1 [1a], the IC50 (BChE from equine serum) is reported as 88.4 ± 1.27 µM, the “Selectivity to BChE” value (BChE from equine serum) is reported as 0.8 and the IC50 (AChE from electric eel) is reported as 72.9 ± 1.06 µM.
For CN(C)C(=S)Oc1ccc(Cl)cc1C(=O)Nc1ccc(Cl)cc1 [1b, O-{4-Chloro-2-[(4-chlorophenyl)carbamoyl]phenyl} dimethylcarbamothioate], the IC50 (BChE from equine serum) was 51.4 ± 1.65 µM, the “Selectivity to BChE” value (BChE from equine serum) was 0.8 and the “Selectivity Index for BChE” value (BChE from equine serum) was 1.6. For the same molecule, the IC50 (AChE from electric eel) was 39 ± 1.11 µM, the “Selectivity Index for AChE” value (AChE from electric eel) was 2.1 and the IC50 (HepG2 cells; [1]) was 83.5 µM.
With CN(C(=O)Oc1ccc(Cl)cc1C(=O)Nc1ccc(Cl)cc1)c1ccccc1 [1c] the IC50 (BChE from equine serum) was 4.2 ± 0.18 µM, the “Selectivity to BChE” value (BChE from equine serum) was 17.8 and the “Selectivity Index for BChE” value (BChE from equine serum) was 68.8. The IC50 (AChE from electric eel) was 74.8 ± 2.95 µM and the IC50 (HepG2 cells; [1]) was 289 µM.
For O=C(Nc1ccc(Cl)cc1)c1cc(Cl)ccc1OC(=O)N(c1ccccc1)c1ccccc1 [1d], the IC50 (BChE from equine serum) was 106 ± 3.64 µM and the IC50 (AChE from electric eel) was 54.8 ± 1.43 µM.
For CN(C)C(=O)Oc1ccc(Cl)cc1C(=O)Nc1ccc(Br)cc1 [2a], the IC50 (BChE from equine serum) was 54.21 ± 0.3 µM, the “Selectivity to BChE” value (BChE from equine serum) was 1.2 and the IC50 (AChE from electric eel) was 62.4 ± 1.36 µM.
For CN(C)C(=S)Oc1ccc(Cl)cc1C(=O)Nc1ccc(Br)cc1 [2b], the IC50 (BChE from equine serum) was 54.64 ± 0.42 µM, the “Selectivity to BChE” value (BChE from equine serum) was 1.1 and the IC50 (AChE from electric eel) was 59.1 ± 2.13 µM.
In the case of CN(C(=O)Oc1ccc(Cl)cc1C(=O)Nc1ccc(Br)cc1)c1ccccc1 [2c, 2-[(4-bromophenyl)carbamoyl]-4-chlorophenyl methyl(phenyl)carbamate], the IC50 (BChE from equine serum) is reported as 4.3 ± 0.51 µM, the “Selectivity to BChE” value (BChE from equine serum) is reported as 19.0 and the IC50 (AChE from electric eel) is reported as 81.6 ± 2.92 µM. The “Selectivity Index for AChE” value (AChE from electric eel) was 11.6 and the IC50 (HepG2 cells; [1]) was 945 µM.
With O=C(Nc1ccc(Br)cc1)c1cc(Cl)ccc1OC(=O)N(c1ccccc1)c1ccccc1 [2d] the IC50 (BChE from equine serum) was 145 ± 29 µM and the IC50 (AChE from electric eel) was 63.3 ± 0.95 µM.
In the case of CN(C)C(=O)Oc1ccc(Cl)cc1C(=O)Nc1ccc(F)cc1 [3a, 4-chloro-2-[(4-fluorophenyl)carbamoyl]phenyl dimethylcarbamate], the IC50 (BChE from equine serum) is reported as 311 ± 4.5 µM and the IC50 (AChE from electric eel) is reported as 76.2 ± 2.87 µM.
For CN(C)C(=S)Oc1ccc(Cl)cc1C(=O)Nc1ccc(F)cc1 [3b, O-{4-chloro-2-[(4-fluorophenyl)carbamoyl]phenyl} dimethylcarbamothioate], the IC50 (BChE from equine serum) was 91.4 ± 5.45 µM, the “Selectivity to BChE” value (BChE from equine serum) was 1.0 and the IC50 (AChE from electric eel) was 89.7 ± 4.68 µM.
In the case of CN(C(=O)Oc1ccc(Cl)cc1C(=O)Nc1ccc(F)cc1)c1ccccc1 [3c], the IC50 (BChE from equine serum) is reported as 7.34 ± 0.14 µM, the “Selectivity to BChE” value (BChE from equine serum) is reported as 8.5 and the “Selectivity Index for BChE” value (BChE from equine serum) is reported as 69.8. For the same molecule, the IC50 (AChE from electric eel) was 62.5 ± 5.03 µM, the “Selectivity Index for AChE” value (AChE from electric eel) was 8.2 and the IC50 (HepG2 cells; [1]) was 512 µM.
For O=C(Nc1ccc(F)cc1)c1cc(Cl)ccc1OC(=O)N(c1ccccc1)c1ccccc1 [3d], the IC50 (BChE from equine serum) was 15.63 ± 0.11 µM, the “Selectivity to BChE” value (BChE from equine serum) was 3.1 and the IC50 (AChE from electric eel) was 49 ± 3.88 µM.
In the case of CN(C)C(=O)Oc1ccc(Cl)cc1C(=O)Nc1ccc(C(F)(F)F)cc1 [4a, 4-chloro-2-{[4-(trifluoro-methyl)phenyl]carbamoyl}phenyl dimethylcarbamate], the IC50 (BChE from equine serum) is reported as 28.1 ± 0.86 µM, the “Selectivity to BChE” value (BChE from equine serum) is reported as 1.7 and the IC50 (AChE from electric eel) is reported as 49 ± 0.54 µM. The IC50 (HepG2 cells; [2]) was roughly 6000 µM and the IC50 (HepG2 cells; [1]) was 6510 µM.
With CN(C)C(=S)Oc1ccc(Cl)cc1C(=O)Nc1ccc(C(F)(F)F)cc1 [4b] the IC50 (BChE from equine serum) was 36.22 ± 0.28 µM, the “Selectivity to BChE” value (BChE from equine serum) was 1.2 and the “Selectivity Index for BChE” value (BChE from equine serum) was 1.9. The IC50 (AChE from electric eel) was 42 ± 0.55 µM and the IC50 (HepG2 cells; [1]) was 67.3 µM.
With CN(C(=O)Oc1ccc(Cl)cc1C(=O)Nc1ccc(C(F)(F)F)cc1)c1ccccc1 [4c] the IC50 (BChE from equine serum) was 1.97 ± 0.02 µM, the “Selectivity Index for BChE” value (BChE from equine serum) was “˃50.8” and the IC50 (AChE from electric eel) was 49.9 ± 2.76 µM. For the same molecule, the IC50 (HepG2 cells; [1]) was greater than 100 µM.
In the case of O=C(Nc1ccc(C(F)(F)F)cc1)c1cc(Cl)ccc1OC(=O)N(c1ccccc1)c1ccccc1 [4d], the IC50 (BChE from equine serum) is reported as 49 ± 0.17 µM, the “Selectivity to BChE” value (BChE from equine serum) is reported as 1.0 and the IC50 (AChE from electric eel) is reported as 47.4 ± 2.78 µM.
In the case of CN(C)C(=O)Oc1ccccc1C(=O)Nc1ccccc1 [5a], the IC50 (BChE from equine serum) is reported as 83.6 ± 6.84 µM, the “Selectivity to BChE” value (BChE from equine serum) is reported as 0.7 and the “Selectivity Index for BChE” value (BChE from equine serum) is reported as 71.6. For the same molecule, the IC50 (AChE from electric eel) was 57.7 ± 1.6 µM, the IC50 (HepG2 cells; [2]) was roughly 6000 µM and the IC50 (HepG2 cells; [1]) was 5990 µM.
For CN(C)C(=S)Oc1ccccc1C(=O)Nc1ccccc1 [5b], the IC50 (BChE from equine serum) was 26.6 ± 2.78 µM, the “Selectivity to BChE” value (BChE from equine serum) was 2.3 and the IC50 (AChE from electric eel) was 61.9 ± 6.56 µM.
With CN(C(=O)Oc1ccccc1C(=O)Nc1ccccc1)c1ccccc1 [5c] the IC50 (BChE from equine serum) was 11.4 ± 0.48 µM, the “Selectivity to BChE” value (BChE from equine serum) was 4.8 and the IC50 (AChE from electric eel) was 55 ± 2.46 µM.
For O=C(Nc1ccccc1)c1ccccc1OC(=O)N(c1ccccc1)c1ccccc1 [5d, 2-(phenylcarbamoyl)phenyl diphenylcarbamate], the IC50 (BChE from equine serum) was 1.6 ± 0.01 µM, the “Selectivity Index for BChE” value (BChE from equine serum) was 131.9 and the IC50 (AChE from electric eel) was 53.8 ± 4.26 µM. The IC50 (HepG2 cells; [1]) was 211 µM.
